# Source: paper PMC11111408, “Concurrent inhibition of oncogenic and wild-type RAS-GTP for cancer therapy” (Nature, 2024)
# System: PRISM DNA-barcoded human tumour cell lines
# Assay: PRISM pooled cell viability assay;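 for PRISM AUC: 8 threefold dilutions from 10 µM with 5 days of exposure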
# Assay type: cell-based
# Design: AUC (PRISM viability) / AUC (PRISM): unit not given beside the values
# Settings: for AUC (PRISM viability): WT; for PRISM AUC: KRAS MUT
# Procedure: Cells were then lysed in TCL mRNA lysis buffer, and then PCR with reverse transcription was performed. Detection of the barcodes and univariate and multivariate analysis was then performed as previously described. Data analysis is described in the Supplementary Methods. Up-to-date code for our analysis is at the github link: https://github.com/cmap/dockerized_mts.
# For every gene with non-silent mutations in at least four cell-lines, we compared the AUC values between cells with and without those mutations using a t-test. This analysis was carried out for: (i) the full dataset; (ii) excluding cell lines with non-silent KRAS mutations; and (iii) excluding cell lines that have either KRAS or NRAS non-silent mutations.
smiles,measurement,setting,value
CCn1c(-c2cc(N3CCN(C4CC4)CC3)cnc2[C@H](C)OC)c2c3cc(ccc31)-c1csc(n1)C[C@H](NC(=O)[C@H]1[C@@H]3COC[C@@H]31)C(=O)N1CCC[C@H](N1)C(=O)OCC(C)(C)C2 [RMC-7977],AUC (PRISM viability),HUG1N_STOMACH,0.8055
same,AUC (PRISM viability),HUH1_LIVER,0.7529
same,AUC (PRISM viability),HUH6_LIVER,0.7376
same,AUC (PRISM viability),HUH7_LIVER,0.8557
same,AUC (PRISM viability),HUH28_BILIARY_TRACT,0.8029
same,PRISM AUC,HUPT3_PANCREAS,0.1666
same,PRISM AUC,HUPT4_PANCREAS,0.2071
same,PRISM AUC,IALM_LUNG,0.3346
same,AUC (PRISM viability),IGR1_SKIN,0.9019
same,AUC (PRISM viability),IGR37_SKIN,0.7982
same,AUC (PRISM viability),IGR39_SKIN,0.9854
same,AUC (PRISM viability),IGROV1_OVARY,0.7964
same,AUC (PRISM viability),IM95_STOMACH,0.4996
same,AUC (PRISM viability),IPC298_SKIN,0.1645
same,AUC (PRISM viability),ISHIKAWAHERAKLIO02ER_ENDOMETRIUM,0.7979
same,AUC (PRISM viability),ISTMES2_PLEURA,1
same,AUC (PRISM viability),J82_URINARY_TRACT,0.7456
same,AUC (PRISM viability),JEKO1_HAEMATOPOIETIC_AND_LYMPHOID_TISSUE,0.8585
same,AUC (PRISM viability),JHH1_LIVER,0.2992
same,AUC (PRISM viability),JHH4_LIVER,0.7822
same,AUC (PRISM viability),JHH5_LIVER,0.337
same,AUC (PRISM viability),JHH6_LIVER,0.6328
same,AUC (PRISM viability),JHH7_LIVER,0.6689
same,AUC (PRISM viability),JHOC5_OVARY,0.6127
same,AUC (PRISM viability),JHOM1_OVARY,0.7183
same,AUC (PRISM viability),JHOS2_OVARY,0.6659
same,AUC (PRISM viability),JHUEM2_ENDOMETRIUM,0.722
same,AUC (PRISM viability),JIMT1_BREAST,0.6067
same,AUC (PRISM viability),JJN3_HAEMATOPOIETIC_AND_LYMPHOID_TISSUE,0.5546
same,AUC (PRISM viability),JL1_PLEURA,0.8348
same,AUC (PRISM viability),JM1_HAEMATOPOIETIC_AND_LYMPHOID_TISSUE,0.8697
same,AUC (PRISM viability),JMSU1_URINARY_TRACT,0.7968
same,AUC (PRISM viability),JURKAT_HAEMATOPOIETIC_AND_LYMPHOID_TISSUE,1
same,AUC (PRISM viability),JURLMK1_HAEMATOPOIETIC_AND_LYMPHOID_TISSUE,0.263
same,AUC (PRISM viability),JVM3_HAEMATOPOIETIC_AND_LYMPHOID_TISSUE,0.6896
same,AUC (PRISM viability),K029AX_SKIN,0.9507
same,AUC (PRISM viability),K562_HAEMATOPOIETIC_AND_LYMPHOID_TISSUE,0.4372
same,AUC (PRISM viability),KALS1_CENTRAL_NERVOUS_SYSTEM,0.7464
same,AUC (PRISM viability),KARPAS299_HAEMATOPOIETIC_AND_LYMPHOID_TISSUE,0.6122
same,PRISM AUC,KARPAS620_HAEMATOPOIETIC_AND_LYMPHOID_TISSUE,0.3529
same,AUC (PRISM viability),KATOIII_STOMACH,0.4955
same,AUC (PRISM viability),KCL22_HAEMATOPOIETIC_AND_LYMPHOID_TISSUE,0.4527
same,AUC (PRISM viability),KE37_HAEMATOPOIETIC_AND_LYMPHOID_TISSUE,0.4418
same,AUC (PRISM viability),KE39_STOMACH,0.6732
same,AUC (PRISM viability),KELLY_AUTONOMIC_GANGLIA,0.7861
same,PRISM AUC,KHM1B_HAEMATOPOIETIC_AND_LYMPHOID_TISSUE,0.496
same,AUC (PRISM viability),KLE_ENDOMETRIUM,0.8932
same,AUC (PRISM viability),KMBC2_URINARY_TRACT,0.2167
same,AUC (PRISM viability),KMH2_HAEMATOPOIETIC_AND_LYMPHOID_TISSUE,0.7624
same,AUC (PRISM viability),KMRC1_KIDNEY,1
same,AUC (PRISM viability),KMRC3_KIDNEY,0.8631
same,AUC (PRISM viability),KMRC20_KIDNEY,0.5322
same,AUC (PRISM viability),KMS11_HAEMATOPOIETIC_AND_LYMPHOID_TISSUE,0.6264
same,AUC (PRISM viability),KMS18_HAEMATOPOIETIC_AND_LYMPHOID_TISSUE,0.2086
same,AUC (PRISM viability),KMS27_HAEMATOPOIETIC_AND_LYMPHOID_TISSUE,0.3359
same,AUC (PRISM viability),KMS34_HAEMATOPOIETIC_AND_LYMPHOID_TISSUE,0.4857
same,AUC (PRISM viability),KNS42_CENTRAL_NERVOUS_SYSTEM,0.8285
same,AUC (PRISM viability),KNS60_CENTRAL_NERVOUS_SYSTEM,0.8415
same,AUC (PRISM viability),KNS62_LUNG,0.4354
same,AUC (PRISM viability),KNS81_CENTRAL_NERVOUS_SYSTEM,0.5354
same,PRISM AUC,KOPN8_HAEMATOPOIETIC_AND_LYMPHOID_TISSUE,0.2801
same,PRISM AUC,KP2_PANCREAS,0.2975
same,PRISM AUC,KP3_PANCREAS,0.3778
same,PRISM AUC,KP4_PANCREAS,0.4423
same,AUC (PRISM viability),KS1_CENTRAL_NERVOUS_SYSTEM,0.4806
same,AUC (PRISM viability),KU1919_URINARY_TRACT,0.2273
same,AUC (PRISM viability),KURAMOCHI_OVARY,1
same,AUC (PRISM viability),KYM1_SOFT_TISSUE,0.3526
same,AUC (PRISM viability),KYO1_HAEMATOPOIETIC_AND_LYMPHOID_TISSUE,0.2345
same,AUC (PRISM viability),KYSE30_OESOPHAGUS,0.402
same,AUC (PRISM viability),KYSE70_OESOPHAGUS,0.7015
same,AUC (PRISM viability),KYSE140_OESOPHAGUS,0.5343
same,AUC (PRISM viability),KYSE150_OESOPHAGUS,0.4708
same,AUC (PRISM viability),KYSE180_OESOPHAGUS,0.5999
same,AUC (PRISM viability),KYSE270_OESOPHAGUS,0.564
same,PRISM AUC,KYSE410_OESOPHAGUS,0.2588
same,AUC (PRISM viability),KYSE450_OESOPHAGUS,0.34
same,AUC (PRISM viability),KYSE510_OESOPHAGUS,0.4594
same,AUC (PRISM viability),KYSE520_OESOPHAGUS,0.4602
same,PRISM AUC,L33_PANCREAS,0.3993
same,AUC (PRISM viability),L363_HAEMATOPOIETIC_AND_LYMPHOID_TISSUE,0.6953
same,AUC (PRISM viability),LAMA84_HAEMATOPOIETIC_AND_LYMPHOID_TISSUE,0.3291
same,AUC (PRISM viability),LCLC103H_LUNG,0.6805
same,AUC (PRISM viability),LI7_LIVER,0.4821
same,AUC (PRISM viability),LK2_LUNG,0.4878
same,AUC (PRISM viability),LMSU_STOMACH,0.6242
same,AUC (PRISM viability),LN18_CENTRAL_NERVOUS_SYSTEM,0.6382
same,AUC (PRISM viability),LN229_CENTRAL_NERVOUS_SYSTEM,0.6899
same,AUC (PRISM viability),LN382_CENTRAL_NERVOUS_SYSTEM,0.6351
same,AUC (PRISM viability),LNCAPCLONEFGC_PROSTATE,0.7528
same,AUC (PRISM viability),LNZ308_CENTRAL_NERVOUS_SYSTEM,0.4353
same,AUC (PRISM viability),LOUNH91_LUNG,0.4098
same,PRISM AUC,LOVO_LARGE_INTESTINE,0.4131
same,AUC (PRISM viability),LOXIMVI_SKIN,1
same,PRISM AUC,LS180_LARGE_INTESTINE,0.2098
same,AUC (PRISM viability),LS411N_LARGE_INTESTINE,1
same,PRISM AUC,LS513_LARGE_INTESTINE,0.2181
same,PRISM AUC,LU99_LUNG,0.2453
same,AUC (PRISM viability),LUDLU1_LUNG,0.5495
same,AUC (PRISM viability),LXF289_LUNG,0.5423
same,AUC (PRISM viability),M059K_CENTRAL_NERVOUS_SYSTEM,0.9015
same,AUC (PRISM viability),MALME3M_SKIN,0.9889
same,AUC (PRISM viability),MC116_HAEMATOPOIETIC_AND_LYMPHOID_TISSUE,0.9825
same,PRISM AUC,MCAS_OVARY,0.3593
same,AUC (PRISM viability),MCF7_BREAST,0.8582
same,AUC (PRISM viability),MDAMB175VII_BREAST,0.5383
same,PRISM AUC,MDAMB231_BREAST,0.478
same,AUC (PRISM viability),MDAMB361_BREAST,0.7391
same,AUC (PRISM viability),MDAMB435S_SKIN,0.9518
same,AUC (PRISM viability),MDAMB436_BREAST,0.9067
same,AUC (PRISM viability),MDAMB453_BREAST,0.3963
same,AUC (PRISM viability),MDAMB468_BREAST,0.5525
same,AUC (PRISM viability),MDST8_LARGE_INTESTINE,0.7229
same,AUC (PRISM viability),MELHO_SKIN,0.9921
same,AUC (PRISM viability),MELJUSO_SKIN,0.3578
same,AUC (PRISM viability),MESSA_SOFT_TISSUE,0.9559
same,AUC (PRISM viability),MEWO_SKIN,0.6173
same,AUC (PRISM viability),MFE280_ENDOMETRIUM,0.5252
same,AUC (PRISM viability),MFE296_ENDOMETRIUM,0.9033
same,AUC (PRISM viability),MFE319_ENDOMETRIUM,0.8155
same,AUC (PRISM viability),MG63_BONE,0.7861
same,AUC (PRISM viability),MHHES1_BONE,0.8525
same,AUC (PRISM viability),MHHNB11_AUTONOMIC_GANGLIA,0.4191
same,PRISM AUC,MIAPACA2_PANCREAS,0.1568
same,AUC (PRISM viability),MKN1_STOMACH,0.5983
same,AUC (PRISM viability),MKN7_STOMACH,0.4769
same,AUC (PRISM viability),MKN45_STOMACH,0.1583
same,AUC (PRISM viability),MKN74_STOMACH,0.7438
same,AUC (PRISM viability),MOLM13_HAEMATOPOIETIC_AND_LYMPHOID_TISSUE,0.4032
same,AUC (PRISM viability),MOLP2_HAEMATOPOIETIC_AND_LYMPHOID_TISSUE,0.65
same,AUC (PRISM viability),MOLT16_HAEMATOPOIETIC_AND_LYMPHOID_TISSUE,0.6383
same,AUC (PRISM viability),MONOMAC1_HAEMATOPOIETIC_AND_LYMPHOID_TISSUE,0.7673
same,AUC (PRISM viability),MONOMAC6_HAEMATOPOIETIC_AND_LYMPHOID_TISSUE,0.6964
